# According to PubChem BioAssay (NCI):
#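 GI50 = concentration required for 50% inhibition of growth. TGI denotes the concentration required for complete inhibition of growth.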
# Experiments:
# Test in all cases: NCI tumour cell line growth inhibition, 384-well format
# 786-0 renal = system: 786-0 renal
# A498 renal = system: A498 renal
# A549 NSCLC = system: A549 NSCLC
# ACHN renal = system: ACHN renal
# BT-549 breast = system: BT-549 breast
# CAKI-1 renal = system: CAKI-1 renal
# CCRF-CEM leukemia = system: CCRF-CEM leukemia
# COLO 205 colon = system: COLO 205 colon
# DU-145 prostate = system: DU-145 prostate
# EKVX NSCLC = system: EKVX NSCLC
# HCC-2998 colon = system: HCC-2998 colon
# HCT-116 colon = system: HCT-116 colon
# HCT-15 colon = system: HCT-15 colon
# HL-60(TB) leukemia = system: HL-60(TB) leukemia
# HOP-62 NSCLC = system: HOP-62 NSCLC
# HOP-92 NSCLC = system: HOP-92 NSCLC
# HS 578T breast = system: HS 578T breast
# HT29 colon = system: HT29 colon
# IGROV1 ovarian = system: IGROV1 ovarian
# K-562 leukemia = system: K-562 leukemia
# KM12 colon = system: KM12 colon
# M14 melanoma = system: M14 melanoma
# MALME-3M melanoma = system: MALME-3M melanoma
# MCF7 breast = system: MCF7 breast
# MDA-MB-231 breast = system: MDA-MB-231 breast
# MDA-MB-435 melanoma = system: MDA-MB-435 melanoma
# MDA-MB-468 breast = system: MDA-MB-468 breast
# MOLT-4 leukemia = system: MOLT-4 leukemia
# NCI-H226 lung = system: NCI-H226 lung
# NCI-H23 lung = system: NCI-H23 lung
# NCI-H322M lung = system: NCI-H322M lung
# NCI-H460 NSCLC = system: NCI-H460 NSCLC
# NCI-H522 lung = system: NCI-H522 lung
# NCI/ADR-RES ovarian = system: NCI/ADR-RES ovarian
# OVCAR-3 ovarian = system: OVCAR-3 ovarian
# OVCAR-4 ovarian = system: OVCAR-4 ovarian
# OVCAR-5 ovarian = system: OVCAR-5 ovarian
# OVCAR-8 ovarian = system: OVCAR-8 ovarian
# PC-3 prostate = system: PC-3 prostate
# RPMI-8226 leukemia = system: RPMI-8226 leukemia
# RXF 393 renal = system: RXF 393 renal
# SF-268 CNS = system: SF-268 CNS
# SF-295 CNS = system: SF-295 CNS
# SF-539 CNS = system: SF-539 CNS
# SK-MEL-2 melanoma = system: SK-MEL-2 melanoma
# SK-MEL-28 melanoma = system: SK-MEL-28 melanoma
# SK-MEL-5 melanoma = system: SK-MEL-5 melanoma
# SK-OV-3 ovarian = system: SK-OV-3 ovarian
# SN12C renal = system: SN12C renal
# SNB-19 CNS = system: SNB-19 CNS
# SNB-75 CNS = system: SNB-75 CNS
# SR leukemia = system: SR leukemia
# SW-620 colon = system: SW-620 colon
# T-47D breast = system: T-47D breast
# TK-10 renal = system: TK-10 renal
# U251 glioblastoma = system: U251 glioblastoma
# UACC-257 melanoma = system: UACC-257 melanoma
# UACC-62 melanoma = system: UACC-62 melanoma
structure (smiles),measurement,setting,value
CCn1c(=O)c(-c2ccn[nH]2)cc2c(C)nc(N)nc21,GI50,786-0 renal,2910 nM
same,TGI,786-0 renal,15700 nM
same,GI50,A498 renal,384 nM
same,TGI,A498 renal,1970 nM
same,GI50,A549 NSCLC,2270 nM
same,TGI,A549 NSCLC,9940 nM
same,GI50,ACHN renal,2000 nM
same,TGI,ACHN renal,8330 nM
same,GI50,BT-549 breast,330 nM
same,TGI,BT-549 breast,2760 nM
same,GI50,CAKI-1 renal,663 nM
same,TGI,CAKI-1 renal,3780 nM
same,GI50,CCRF-CEM leukemia,434 nM
same,TGI,CCRF-CEM leukemia,2540 nM
same,GI50,COLO 205 colon,2240 nM
same,TGI,COLO 205 colon,7350 nM
same,GI50,DU-145 prostate,3380 nM
same,TGI,DU-145 prostate,> 100000 nM
same,GI50,EKVX NSCLC,911 nM
same,TGI,EKVX NSCLC,4520 nM
same,GI50,HCC-2998 colon,2190 nM
same,TGI,HCC-2998 colon,13900 nM
same,GI50,HCT-116 colon,5310 nM
same,TGI,HCT-116 colon,> 100000 nM
same,GI50,HCT-15 colon,2360 nM
same,TGI,HCT-15 colon,> 100000 nM
same,GI50,HL-60(TB) leukemia,840 nM
same,TGI,HL-60(TB) leukemia,7000 nM
same,GI50,HOP-62 NSCLC,1930 nM
same,TGI,HOP-62 NSCLC,11600 nM
same,GI50,HOP-92 NSCLC,201 nM
same,TGI,HOP-92 NSCLC,1310 nM
same,GI50,HS 578T breast,310 nM
same,TGI,HS 578T breast,1660 nM
same,GI50,HT29 colon,2420 nM
same,TGI,HT29 colon,> 69500 nM
same,GI50,IGROV1 ovarian,333 nM
same,TGI,IGROV1 ovarian,1210 nM
same,GI50,K-562 leukemia,6580 nM
same,TGI,K-562 leukemia,> 100000 nM
same,GI50,KM12 colon,3390 nM
same,TGI,KM12 colon,38600 nM
same,GI50,M14 melanoma,2200 nM
same,TGI,M14 melanoma,> 27400 nM
same,GI50,MALME-3M melanoma,456 nM
same,TGI,MALME-3M melanoma,2030 nM
same,GI50,MCF7 breast,511 nM
same,TGI,MCF7 breast,> 100000 nM
same,GI50,MDA-MB-231 breast,955 nM
same,TGI,MDA-MB-231 breast,> 23800 nM
same,GI50,MDA-MB-435 melanoma,2710 nM
same,TGI,MDA-MB-435 melanoma,19700 nM
same,GI50,MDA-MB-468 breast,358 nM
same,TGI,MDA-MB-468 breast,1570 nM
same,GI50,MOLT-4 leukemia,587 nM
same,TGI,MOLT-4 leukemia,2160 nM
same,GI50,NCI-H226 lung,1330 nM
same,TGI,NCI-H226 lung,5510 nM
same,GI50,NCI-H23 lung,1430 nM
same,TGI,NCI-H23 lung,> 30200 nM
same,GI50,NCI-H322M lung,2180 nM
same,TGI,NCI-H322M lung,10300 nM
same,GI50,NCI-H460 NSCLC,883 nM
same,TGI,NCI-H460 NSCLC,10800 nM
same,GI50,NCI-H522 lung,671 nM
same,TGI,NCI-H522 lung,4230 nM
same,GI50,NCI/ADR-RES ovarian,1580 nM
same,TGI,NCI/ADR-RES ovarian,8000 nM
same,GI50,OVCAR-3 ovarian,853 nM
same,TGI,OVCAR-3 ovarian,4460 nM
same,GI50,OVCAR-4 ovarian,1390 nM
same,TGI,OVCAR-4 ovarian,11200 nM
same,GI50,OVCAR-5 ovarian,1010 nM
same,TGI,OVCAR-5 ovarian,6830 nM
same,GI50,OVCAR-8 ovarian,2750 nM
same,TGI,OVCAR-8 ovarian,> 60400 nM
same,GI50,PC-3 prostate,369 nM
same,TGI,PC-3 prostate,2570 nM
same,GI50,RPMI-8226 leukemia,232 nM
same,TGI,RPMI-8226 leukemia,646 nM
same,GI50,RXF 393 renal,399 nM
same,TGI,RXF 393 renal,1900 nM
same,GI50,SF-268 CNS,1890 nM
same,TGI,SF-268 CNS,15600 nM
same,GI50,SF-295 CNS,1580 nM
same,TGI,SF-295 CNS,8640 nM
same,GI50,SF-539 CNS,2970 nM
same,TGI,SF-539 CNS,21500 nM
same,GI50,SK-MEL-2 melanoma,3220 nM
same,TGI,SK-MEL-2 melanoma,9870 nM
same,GI50,SK-MEL-28 melanoma,1140 nM
same,TGI,SK-MEL-28 melanoma,7220 nM
same,GI50,SK-MEL-5 melanoma,1160 nM
same,TGI,SK-MEL-5 melanoma,4000 nM
same,GI50,SK-OV-3 ovarian,562 nM
same,TGI,SK-OV-3 ovarian,2930 nM
same,GI50,SN12C renal,1220 nM
same,TGI,SN12C renal,> 34500 nM
same,GI50,SNB-19 CNS,18100 nM
same,TGI,SNB-19 CNS,> 100000 nM
same,GI50,SNB-75 CNS,477 nM
same,TGI,SNB-75 CNS,2400 nM
same,GI50,SR leukemia,1750 nM
same,TGI,SR leukemia,5000 nM
same,GI50,SW-620 colon,3240 nM
same,TGI,SW-620 colon,25700 nM
same,GI50,T-47D breast,394 nM
same,TGI,T-47D breast,2040 nM
same,GI50,TK-10 renal,790 nM
same,TGI,TK-10 renal,3500 nM
same,GI50,U251 glioblastoma,5620 nM
same,TGI,U251 glioblastoma,97900 nM
same,GI50,UACC-257 melanoma,3780 nM
same,TGI,UACC-257 melanoma,39400 nM
same,GI50,UACC-62 melanoma,1560 nM
same,TGI,UACC-62 melanoma,10700 nM
